The values that follow come from BindingDB's records for doi:10.1021/jm00003a020 (University of Washington, 1995).

The test is described as follows: Inhibitory concentration was determined against delta-opioid receptor using [3H]- DPDPE radioligand.
`Oc1ccc2c3c1O[C@H]1[C@H](OCc4ccccc4N=C=S)CC[C@@]4(O)C(C2)N(CC2CC2)CCC314` (stereo partly drawn) [4-cyclopropylmethyl-14-(2-isothiocyanatobenzyloxy)-(13R,14R,17S)-12-oxa-4-azapentacyclo[9.6.1.01,13.05,17.07,18]octadeca-7,9,11(18)-triene-10,17-diol(o-NCS)]: the IC50 was found to be 1.8 nM. This counts as single-digit nanomolar.

Regarding `Oc1ccc2c3c1O[C@H]1[C@H](OCc4ccccc4CN=C=S)CC[C@@]4(O)C(C2)N(CC2CC2)CCC314` (stereo partly drawn) [4-cyclopropylmethyl-14-(2-isothiocyanatomethylbenzyloxy)-(1S,13R,14R,17S)-12-oxa-4-azapentacyclo[9.6.1.01,13.05,17.07,18]octadeca-7,9,11(18)-triene-10,17-diol(o-CH2NCS)], the IC50 worked out at 22 nM.

In the case of `Oc1ccc2c3c1O[C@H]1[C@H](OCc4cccc(N=C=S)c4)CC[C@@]4(O)C(C2)N(CC2CC2)CCC314` (stereo partly drawn) [4-cyclopropylmethyl-14-(3-isothiocyanatobenzyloxy)-(1S,13R,14R,17S)-12-oxa-4-azapentacyclo[9.6.1.01,13.05,17.07,18]octadeca-7,9,11(18)-triene-10,17-diol(m-NCS)], the IC50 came out at 6.5 nM.

`Oc1ccc2c3c1O[C@H]1[C@H](OCc4cccc(CN=C=S)c4)CC[C@@]4(O)C(C2)N(CC2CC2)CCC314` (stereo partly drawn) [4-cyclopropylmethyl-14-(3-isothiocyanatomethylbenzyloxy)-(1S,13R,14R,17S)-12-oxa-4-azapentacyclo[9.6.1.01,13.05,17.07,18]octadeca-7,9,11(18)-triene-10,17-diol(m-CH2NCS)]: the 50% inhibitory concentration (IC50) came out at 12 nM.

In turn, `Oc1ccc2c3c1O[C@H]1[C@H](OCc4ccc(N=C=S)cc4)CC[C@@]4(O)C(C2)N(CC2CC2)CCC314` (stereo partly drawn) [4-cyclopropylmethyl-14-(4-isothiocyanatobenzyloxy)-(1S,13R,14R,17S)-12-oxa-4-azapentacyclo[9.6.1.01,13.05,17.07,18]octadeca-7,9,11(18)-triene-10,17-diol(p-NCS)] returned a 50% inhibitory concentration (IC50) of 35 nM. This IC50 is about 2.9-fold higher than that of the compound before.
